In ChEMBL document CHEMBL4052752, “Synthesis and evaluation of 1-phenyl-1H-1,2,3-triazole-4-carboxylic acid derivatives as xanthine oxidase inhibitors” (Bioorg Med Chem Lett, 2017):

Target: T1, Xanthine dehydrogenase/oxidase (Bos taurus, UniProt P80457)
Test: Potency index, ratio of allopurinol IC50 to compound IC50 for bovine xanthine oxidase
Details: cattle; call rule not given here

T1 sequence (P80457 whole entry): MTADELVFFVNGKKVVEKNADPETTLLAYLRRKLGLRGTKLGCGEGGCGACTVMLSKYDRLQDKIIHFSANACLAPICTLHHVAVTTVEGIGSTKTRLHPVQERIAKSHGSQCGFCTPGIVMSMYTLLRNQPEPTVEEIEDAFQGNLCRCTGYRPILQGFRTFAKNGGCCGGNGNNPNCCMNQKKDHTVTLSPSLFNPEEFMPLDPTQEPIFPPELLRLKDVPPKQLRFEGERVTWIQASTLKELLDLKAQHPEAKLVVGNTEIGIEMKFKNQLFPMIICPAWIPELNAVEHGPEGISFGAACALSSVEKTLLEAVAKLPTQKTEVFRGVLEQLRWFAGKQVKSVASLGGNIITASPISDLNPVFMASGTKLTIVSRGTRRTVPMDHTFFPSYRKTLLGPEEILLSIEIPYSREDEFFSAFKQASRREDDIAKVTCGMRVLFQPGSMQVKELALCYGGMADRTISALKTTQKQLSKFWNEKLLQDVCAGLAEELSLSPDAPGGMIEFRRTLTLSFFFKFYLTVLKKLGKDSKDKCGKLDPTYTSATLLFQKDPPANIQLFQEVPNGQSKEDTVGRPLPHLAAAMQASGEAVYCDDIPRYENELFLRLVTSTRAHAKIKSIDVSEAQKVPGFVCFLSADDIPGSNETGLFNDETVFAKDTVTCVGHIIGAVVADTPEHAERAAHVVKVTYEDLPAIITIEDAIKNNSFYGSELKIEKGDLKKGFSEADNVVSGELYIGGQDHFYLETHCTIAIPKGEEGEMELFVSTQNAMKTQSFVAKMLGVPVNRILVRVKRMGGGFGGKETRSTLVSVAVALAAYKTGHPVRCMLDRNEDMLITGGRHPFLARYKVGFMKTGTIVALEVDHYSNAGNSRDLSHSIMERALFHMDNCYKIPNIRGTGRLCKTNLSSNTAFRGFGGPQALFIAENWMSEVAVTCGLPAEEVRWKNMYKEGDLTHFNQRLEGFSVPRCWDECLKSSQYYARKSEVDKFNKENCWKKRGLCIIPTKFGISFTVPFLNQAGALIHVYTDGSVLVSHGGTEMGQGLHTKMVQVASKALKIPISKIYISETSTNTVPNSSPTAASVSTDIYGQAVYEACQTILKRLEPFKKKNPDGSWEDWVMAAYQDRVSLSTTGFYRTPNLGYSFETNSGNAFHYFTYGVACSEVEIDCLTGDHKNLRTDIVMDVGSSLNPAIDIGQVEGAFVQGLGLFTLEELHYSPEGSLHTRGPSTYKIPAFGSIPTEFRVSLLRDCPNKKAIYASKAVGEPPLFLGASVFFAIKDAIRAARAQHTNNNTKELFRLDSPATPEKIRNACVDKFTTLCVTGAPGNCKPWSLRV

Row | SMILES | Ratio IC50
1 | COc1cccc(COc2ccc(-n3cc(C(=O)O)nn3)cc2C#N)c1 | 36

Target: T1, Xanthine dehydrogenase/oxidase
Test: Mixed-type inhibition of bovine xanthine oxidase by Lineweaver-Burk plot method
Details: cattle

Row | inhibition (INH) | SMILES
2 | Active | COc1cccc(COc2ccc(-n3cc(C(=O)O)nn3)cc2C#N)c1

Target: T1, Xanthine dehydrogenase/oxidase
Test: Inhibition of bovine xanthine oxidase assessed as reduction in uric acid production using xanthine as substrate preincubated for 10 mins followed by substrate addition by spectrophotometric analysis
Details: not given

Row | SMILES | IC50 [nM]
3 | CCC(C)Oc1ccc(-n2cc(C(=O)O)nn2)cc1C#N (stereo unspecified) | 3960
4 | N#Cc1cc(-n2cc(C(=O)O)nn2)ccc1OC1CCCC1 | 1080
5 | CCCCCOc1ccc(-n2cc(C(=O)O)nn2)cc1C#N | 2850
6 | N#Cc1ccc(COc2ccc(-n3cc(C(=O)O)nn3)cc2C#N)cc1 | 850
7 | CC(C)CCOc1ccc(-n2cc(C(=O)O)nn2)cc1C#N | 1620
8 | CCCCCCCOc1ccc(-n2cc(C(=O)O)nn2)cc1C#N | 1470
9 | COCCOc1ccc(-n2cc(C(=O)O)nn2)cc1C#N | 26100
10 | COc1ccccc1COc1ccc(-n2cc(C(=O)O)nn2)cc1C#N | 760
11 | COc1cccc(COc2ccc(-n3cc(C(=O)O)nn3)cc2C#N)c1 | 210
12 | CCCCOc1ccc(-n2cc(C(=O)O)nn2)cc1C#N | 5030
13 | CCCCCCOc1ccc(-n2cc(C(=O)O)nn2)cc1C#N | 1500
14 | COc1ccc(COc2ccc(-n3cc(C(=O)O)nn3)cc2C#N)cc1 | 720
15 | CCCCCCCCOc1ccc(-n2cc(C(=O)O)nn2)cc1C#N | 630

Other lines, results leading:

Row | IC50 [nM] | SMILES
16 | 3270 | CC(C)COc1ccc(-n2cc(C(=O)O)nn2)cc1C#N
17 | > 30000 | CCCOc1ccc(-n2cc(C(=O)O)nn2)cc1C#N
18 | 940 | N#Cc1cc(-n2cc(C(=O)O)nn2)ccc1OCc1ccc(Cl)cc1
19 | 6240 | CC(C)Oc1ccc(-n2cc(C(=O)O)nn2)cc1C#N
20 | 2400 | N#Cc1cc(-n2cc(C(=O)O)nn2)ccc1OCc1ccccc1
21 | 3350 | N#Cc1cccc(COc2ccc(-n3cc(C(=O)O)nn3)cc2C#N)c1
